In BindingDB's records for doi:10.1111/j.1476-5381.1996.tb15208.x (Smithkline Beecham Pharmaceuticals, 1996):

Experiments:
[1] = biological target: T1, 5-hydroxytryptamine receptor 1F (Homo sapiens, UniProt P30939)
T1 sequence (P30939 whole entry): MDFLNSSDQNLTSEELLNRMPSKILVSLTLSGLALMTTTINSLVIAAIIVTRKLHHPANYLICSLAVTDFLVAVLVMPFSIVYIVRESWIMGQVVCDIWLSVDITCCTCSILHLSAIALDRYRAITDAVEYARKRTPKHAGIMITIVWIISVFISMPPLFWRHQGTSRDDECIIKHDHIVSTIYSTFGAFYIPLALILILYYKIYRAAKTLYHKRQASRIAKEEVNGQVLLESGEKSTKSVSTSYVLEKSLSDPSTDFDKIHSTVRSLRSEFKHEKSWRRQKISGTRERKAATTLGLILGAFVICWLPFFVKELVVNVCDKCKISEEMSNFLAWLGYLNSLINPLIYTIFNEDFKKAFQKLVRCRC

[2] = biological target: 5-hydroxytryptamine receptor 1E (Homo sapiens, UniProt P28566)
D(3) dopamine receptor = D(3) dopamine receptor (Homo sapiens, UniProt P35462)
[3] = biological target: Gamma-aminobutyric acid receptor subunit alpha-1 (Rattus norvegicus, UniProt P62813)
[4] = biological target: 5-hydroxytryptamine receptor 2B (Rattus norvegicus, UniProt P30994)
[5] = biological target: T2, Alpha-1A adrenergic receptor (Rattus norvegicus, UniProt P43140)
T2 sequence (P43140 whole entry): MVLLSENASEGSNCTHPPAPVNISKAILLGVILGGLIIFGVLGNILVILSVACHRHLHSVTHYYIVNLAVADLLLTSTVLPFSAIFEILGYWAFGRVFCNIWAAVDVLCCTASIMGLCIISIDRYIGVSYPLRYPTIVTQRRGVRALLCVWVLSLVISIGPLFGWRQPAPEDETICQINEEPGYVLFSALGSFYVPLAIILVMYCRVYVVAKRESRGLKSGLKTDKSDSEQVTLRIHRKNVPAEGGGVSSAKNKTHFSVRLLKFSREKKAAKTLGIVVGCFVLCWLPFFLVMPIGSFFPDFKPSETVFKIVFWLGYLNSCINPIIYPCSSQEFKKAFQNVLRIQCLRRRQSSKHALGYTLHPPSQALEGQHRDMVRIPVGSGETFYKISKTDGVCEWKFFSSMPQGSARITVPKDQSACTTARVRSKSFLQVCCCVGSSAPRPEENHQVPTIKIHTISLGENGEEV

[6] = biological target: 5-hydroxytryptamine receptor 1D (Cavia porcellus, UniProt Q60484)
D(2) dopamine receptor = D(2) dopamine receptor (Homo sapiens, UniProt P14416)
Adenosine receptor A1 = biological target: T3, Adenosine receptor A1 (Rattus norvegicus, UniProt P25099)
T3 sequence (P25099 whole entry): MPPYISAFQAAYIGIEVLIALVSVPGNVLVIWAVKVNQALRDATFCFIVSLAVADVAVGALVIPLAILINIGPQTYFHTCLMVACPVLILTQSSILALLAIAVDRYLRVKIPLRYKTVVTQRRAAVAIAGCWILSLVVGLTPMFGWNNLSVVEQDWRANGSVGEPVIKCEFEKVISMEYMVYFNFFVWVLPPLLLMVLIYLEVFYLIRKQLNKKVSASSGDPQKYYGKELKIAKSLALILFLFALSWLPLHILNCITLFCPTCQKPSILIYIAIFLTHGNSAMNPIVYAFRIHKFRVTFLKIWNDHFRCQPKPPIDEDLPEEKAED

[7] = biological target: T4, 5-hydroxytryptamine receptor 3A (Rattus norvegicus, UniProt P35563)
T4 sequence (P35563 whole entry): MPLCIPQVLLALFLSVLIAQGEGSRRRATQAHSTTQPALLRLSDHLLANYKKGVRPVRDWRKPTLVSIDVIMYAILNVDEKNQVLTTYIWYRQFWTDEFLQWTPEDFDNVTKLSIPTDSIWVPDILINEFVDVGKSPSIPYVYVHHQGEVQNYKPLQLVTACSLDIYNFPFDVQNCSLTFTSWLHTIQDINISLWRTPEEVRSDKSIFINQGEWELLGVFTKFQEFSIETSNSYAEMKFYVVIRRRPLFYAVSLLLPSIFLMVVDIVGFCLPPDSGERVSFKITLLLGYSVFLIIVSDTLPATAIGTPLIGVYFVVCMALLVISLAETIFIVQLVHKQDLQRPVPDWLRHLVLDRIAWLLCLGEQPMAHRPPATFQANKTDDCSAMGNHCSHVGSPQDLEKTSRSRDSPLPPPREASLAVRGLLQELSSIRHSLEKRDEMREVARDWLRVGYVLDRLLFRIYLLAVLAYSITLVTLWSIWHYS

Histamine H1 receptor = Histamine H1 receptor (Cavia porcellus, UniProt P31389)
D(4) dopamine receptor = biological target: T5, D(4) dopamine receptor (Homo sapiens, UniProt P21917)
T5 sequence (P21917 whole entry): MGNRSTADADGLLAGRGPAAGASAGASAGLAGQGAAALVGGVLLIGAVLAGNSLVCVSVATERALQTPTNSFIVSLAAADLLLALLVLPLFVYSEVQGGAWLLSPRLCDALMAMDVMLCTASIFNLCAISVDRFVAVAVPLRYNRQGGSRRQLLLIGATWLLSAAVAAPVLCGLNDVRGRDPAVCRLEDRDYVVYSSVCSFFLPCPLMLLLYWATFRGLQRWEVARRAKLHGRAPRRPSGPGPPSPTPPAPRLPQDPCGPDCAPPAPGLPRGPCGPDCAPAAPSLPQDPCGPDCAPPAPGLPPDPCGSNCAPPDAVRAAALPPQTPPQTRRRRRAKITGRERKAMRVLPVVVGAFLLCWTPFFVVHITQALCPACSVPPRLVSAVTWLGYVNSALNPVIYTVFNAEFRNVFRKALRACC

[8] = biological target: 5-hydroxytryptamine receptor 2A (Homo sapiens, UniProt P28223)
[9] = biological target: 5-hydroxytryptamine receptor 7 (Homo sapiens, UniProt P34969)
Chain of 5-hydroxytryptamine receptor 7 (P34969 whole entry): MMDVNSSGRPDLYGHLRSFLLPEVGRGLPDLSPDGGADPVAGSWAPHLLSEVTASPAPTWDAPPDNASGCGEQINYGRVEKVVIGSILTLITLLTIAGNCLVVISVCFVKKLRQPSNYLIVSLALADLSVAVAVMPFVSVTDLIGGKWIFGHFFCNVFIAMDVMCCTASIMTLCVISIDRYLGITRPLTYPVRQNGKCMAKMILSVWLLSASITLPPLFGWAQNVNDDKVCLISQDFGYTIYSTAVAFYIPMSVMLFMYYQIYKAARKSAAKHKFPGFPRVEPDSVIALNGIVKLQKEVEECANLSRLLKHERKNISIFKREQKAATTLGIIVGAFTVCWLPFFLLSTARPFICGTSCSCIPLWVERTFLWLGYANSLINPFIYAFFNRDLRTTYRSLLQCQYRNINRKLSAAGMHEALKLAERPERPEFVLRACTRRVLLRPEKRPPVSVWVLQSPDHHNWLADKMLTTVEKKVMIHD

Chain of D(2) dopamine receptor (P14416 whole entry): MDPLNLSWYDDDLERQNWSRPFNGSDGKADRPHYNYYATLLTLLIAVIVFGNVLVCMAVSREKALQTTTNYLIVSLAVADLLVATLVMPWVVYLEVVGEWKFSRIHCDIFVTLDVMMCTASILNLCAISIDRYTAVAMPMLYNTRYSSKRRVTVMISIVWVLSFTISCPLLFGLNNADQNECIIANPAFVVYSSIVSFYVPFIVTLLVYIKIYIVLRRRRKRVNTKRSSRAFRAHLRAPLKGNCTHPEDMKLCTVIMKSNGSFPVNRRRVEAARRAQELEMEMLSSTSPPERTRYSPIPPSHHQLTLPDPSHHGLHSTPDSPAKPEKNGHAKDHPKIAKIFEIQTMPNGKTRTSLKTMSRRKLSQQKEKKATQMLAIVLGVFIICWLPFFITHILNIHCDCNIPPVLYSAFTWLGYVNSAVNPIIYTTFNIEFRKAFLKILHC
Chain of 5-hydroxytryptamine receptor 1E (P28566 whole entry): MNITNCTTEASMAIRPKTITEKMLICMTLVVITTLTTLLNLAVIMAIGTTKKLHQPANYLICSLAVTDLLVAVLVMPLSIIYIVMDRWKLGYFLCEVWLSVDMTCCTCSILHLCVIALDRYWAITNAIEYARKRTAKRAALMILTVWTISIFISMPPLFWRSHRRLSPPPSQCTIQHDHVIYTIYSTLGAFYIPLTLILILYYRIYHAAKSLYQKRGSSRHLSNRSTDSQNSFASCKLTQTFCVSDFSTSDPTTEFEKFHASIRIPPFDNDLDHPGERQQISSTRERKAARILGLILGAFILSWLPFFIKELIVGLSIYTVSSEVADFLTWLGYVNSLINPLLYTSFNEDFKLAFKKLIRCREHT
Chain of 5-hydroxytryptamine receptor 2B (P30994 whole entry): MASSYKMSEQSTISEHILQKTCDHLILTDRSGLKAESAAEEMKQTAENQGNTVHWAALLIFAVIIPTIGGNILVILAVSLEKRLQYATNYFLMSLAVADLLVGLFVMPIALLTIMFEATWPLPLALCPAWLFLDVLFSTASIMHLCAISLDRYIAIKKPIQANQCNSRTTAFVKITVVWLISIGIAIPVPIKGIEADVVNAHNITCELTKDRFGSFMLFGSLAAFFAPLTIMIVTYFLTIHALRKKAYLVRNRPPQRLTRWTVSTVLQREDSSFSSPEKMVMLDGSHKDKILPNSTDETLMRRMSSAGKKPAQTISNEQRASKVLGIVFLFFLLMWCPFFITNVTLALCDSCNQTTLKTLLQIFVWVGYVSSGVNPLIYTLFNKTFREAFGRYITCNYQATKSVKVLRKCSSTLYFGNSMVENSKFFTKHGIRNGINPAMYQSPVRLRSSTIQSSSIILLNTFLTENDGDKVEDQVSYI
Chain of Gamma-aminobutyric acid receptor subunit alpha-1 (P62813 whole entry): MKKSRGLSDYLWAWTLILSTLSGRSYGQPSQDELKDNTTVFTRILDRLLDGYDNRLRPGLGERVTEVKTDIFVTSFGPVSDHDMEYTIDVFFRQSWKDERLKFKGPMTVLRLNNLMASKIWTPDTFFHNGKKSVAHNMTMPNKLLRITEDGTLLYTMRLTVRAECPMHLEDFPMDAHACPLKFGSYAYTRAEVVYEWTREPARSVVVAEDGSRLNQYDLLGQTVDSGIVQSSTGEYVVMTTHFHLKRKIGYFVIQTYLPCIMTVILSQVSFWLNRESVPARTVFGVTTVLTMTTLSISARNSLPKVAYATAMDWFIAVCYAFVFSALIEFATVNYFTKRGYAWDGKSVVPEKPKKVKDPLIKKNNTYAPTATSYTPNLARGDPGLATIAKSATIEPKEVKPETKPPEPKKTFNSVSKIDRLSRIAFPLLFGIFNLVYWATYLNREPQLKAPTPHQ
Chain of Histamine H1 receptor (P31389 whole entry): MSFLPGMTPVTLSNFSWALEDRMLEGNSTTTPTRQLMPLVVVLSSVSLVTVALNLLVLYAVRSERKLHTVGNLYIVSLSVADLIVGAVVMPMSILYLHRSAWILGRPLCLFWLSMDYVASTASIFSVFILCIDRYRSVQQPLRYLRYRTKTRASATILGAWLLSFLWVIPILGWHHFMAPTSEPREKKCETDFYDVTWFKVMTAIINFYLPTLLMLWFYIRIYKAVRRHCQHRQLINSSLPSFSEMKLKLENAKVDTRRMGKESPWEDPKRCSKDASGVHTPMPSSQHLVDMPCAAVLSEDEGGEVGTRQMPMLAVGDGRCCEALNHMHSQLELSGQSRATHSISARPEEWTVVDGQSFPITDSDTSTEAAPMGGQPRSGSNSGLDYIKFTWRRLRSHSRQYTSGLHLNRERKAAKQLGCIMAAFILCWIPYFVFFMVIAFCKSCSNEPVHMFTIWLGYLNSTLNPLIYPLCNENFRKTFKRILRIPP
Chain of D(3) dopamine receptor (P35462 as listed by the source): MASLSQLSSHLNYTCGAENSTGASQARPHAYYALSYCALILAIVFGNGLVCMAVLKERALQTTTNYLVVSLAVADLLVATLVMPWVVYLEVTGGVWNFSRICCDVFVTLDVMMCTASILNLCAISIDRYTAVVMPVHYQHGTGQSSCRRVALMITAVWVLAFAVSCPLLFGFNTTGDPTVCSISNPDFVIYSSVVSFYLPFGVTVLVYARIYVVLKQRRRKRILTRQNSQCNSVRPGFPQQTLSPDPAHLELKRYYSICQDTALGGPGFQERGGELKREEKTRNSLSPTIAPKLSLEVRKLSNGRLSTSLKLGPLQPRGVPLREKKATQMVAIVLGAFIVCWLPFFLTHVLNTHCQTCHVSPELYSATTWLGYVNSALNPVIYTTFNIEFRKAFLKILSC
Chain of 5-hydroxytryptamine receptor 2A (P28223 whole entry): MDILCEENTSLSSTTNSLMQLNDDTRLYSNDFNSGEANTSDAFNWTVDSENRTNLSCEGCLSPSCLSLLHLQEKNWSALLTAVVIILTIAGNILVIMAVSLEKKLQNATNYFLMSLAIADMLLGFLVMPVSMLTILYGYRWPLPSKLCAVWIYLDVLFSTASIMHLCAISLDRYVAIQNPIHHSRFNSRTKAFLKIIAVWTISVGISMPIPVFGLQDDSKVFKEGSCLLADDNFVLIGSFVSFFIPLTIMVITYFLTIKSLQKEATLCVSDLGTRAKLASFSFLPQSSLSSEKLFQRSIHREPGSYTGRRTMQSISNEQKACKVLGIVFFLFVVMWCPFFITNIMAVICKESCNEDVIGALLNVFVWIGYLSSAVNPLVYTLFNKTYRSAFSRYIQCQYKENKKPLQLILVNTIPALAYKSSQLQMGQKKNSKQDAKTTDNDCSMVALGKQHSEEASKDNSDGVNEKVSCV
Chain of 5-hydroxytryptamine receptor 1D (Q60484 whole entry): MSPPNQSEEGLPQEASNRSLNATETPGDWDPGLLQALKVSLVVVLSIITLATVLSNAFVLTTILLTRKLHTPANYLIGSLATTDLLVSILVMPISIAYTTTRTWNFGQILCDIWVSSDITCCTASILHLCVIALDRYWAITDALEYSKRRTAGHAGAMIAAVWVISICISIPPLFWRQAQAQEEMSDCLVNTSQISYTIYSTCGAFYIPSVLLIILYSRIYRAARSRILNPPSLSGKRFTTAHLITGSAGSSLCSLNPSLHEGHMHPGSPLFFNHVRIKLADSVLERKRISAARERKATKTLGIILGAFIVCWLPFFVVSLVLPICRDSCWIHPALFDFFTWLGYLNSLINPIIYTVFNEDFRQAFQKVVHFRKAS

Ki [1]: 5.01 µM
Ki [2]: 5.01 µM
Ki (D(3) dopamine receptor): > 10 µM
Ki [3]: > 10 µM
Ki [4]: 0.00129 µM
Ki [5]: > 10 µM
Ki [6]: 1 µM
Ki (D(2) dopamine receptor): > 10 µM
Ki (Adenosine receptor A1): > 10 µM
Ki [7]: > 10 µM
Ki (Histamine H1 receptor): > 10 µM
Ki (D(4) dopamine receptor): > 10 µM
Ki [8]: 1.66 µM
Ki [9]: 1 µM
Structure (SMILES): Cn1ccc2cc3c(cc21)CCN3C(=O)Nc1cccnc1
